# Measurements published in patent US10065945B2, “Isoquinoline derivatives as MGAT2 inhibitors” (Merck Sharp & Dohme Corp., priority 2014, dated 2018).
# pIC50: −log10 of the molar value. Structures can show the parent of a compound that is named as a salt.
# Target: MGAT2 Human (Homo sapiens (Human), UniProt Q3SYC2)
# Assay: MGAT2 Human IC50
# Format: biochemical
# Chain of MGAT2 Human (Q3SYC2 whole entry): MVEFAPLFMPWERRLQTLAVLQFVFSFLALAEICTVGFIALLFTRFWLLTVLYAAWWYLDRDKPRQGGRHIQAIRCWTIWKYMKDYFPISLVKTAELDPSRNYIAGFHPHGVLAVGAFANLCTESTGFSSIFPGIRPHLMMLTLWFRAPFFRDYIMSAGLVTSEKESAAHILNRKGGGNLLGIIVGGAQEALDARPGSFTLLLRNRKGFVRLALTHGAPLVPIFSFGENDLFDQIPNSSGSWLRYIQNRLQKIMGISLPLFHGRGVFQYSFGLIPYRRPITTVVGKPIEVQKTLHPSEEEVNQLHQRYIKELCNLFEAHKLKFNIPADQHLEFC
row,SMILES,pIC50
1,"Cc1c(NS(=O)(=O)c2ccc3c(c2)CN([C@H](C)c2ccc(OCC4CC(F)(F)C4)nc2)CC3)noc1C(C)(C)C [Example 28, 7-(N-(5-(tert-butyl)-4-methylisoxazol-3-yl)sulfamoyl)-2-((R)-1-(6-((3,3-difluorocyclobutyl)methoxy)pyridin-3-yl)ethyl)-1,2,3,4-tetrahydroisoquinolin-2-ium 2,2,2-trifluoroacetate]",8.07
2,"C[C@H](c1cnc(OCC(F)(F)F)nc1)N1CCc2ccc(S(=O)(=O)Nc3noc(C(C)(C)C)c3Br)cc2C1 [Example 10, (R)—N-(4-bromo-5-(tert-butyl)isoxazol-3-yl)-2-(1-(2-(2,2,2-trifluoroethoxy)pyrimidin-5-yl)ethyl)-1,2,3,4-tetrahydroisoquinoline-7-sulfonamide]",7.77
3,CC(C)c1nc(NS(=O)(=O)c2ccc3c(c2)CN([C@H](C)c2ccc(OCC(F)(F)F)nc2)CC3)no1 [Example 8],7.89
4,"CCOC(=O)c1c(NS(=O)(=O)c2ccc3c(c2)CN([C@H](C)c2cc(F)cc(F)c2)CC3)noc1C(C)(C)C [Example 33, (R)-ethyl 5-(tert-butyl)-3-(2-(1-(3,5-difluorophenyl)ethyl)-1,2,3,4-tetrahydroisoquinoline-7-sulfonamido)isoxazole-4-carboxylate]",8.43
5,C[C@H](c1cc(F)cc(F)c1)N1CCc2ccc(S(=O)(=O)Nc3nc(C(=O)N4CCC4)no3)cc2C1 [Example 55],8.43
6,"C[C@H](c1ccc(OCC(F)F)nc1)N1CCc2ccc(S(=O)(=O)Nc3noc(C4CC4)n3)cc2C1 [Example 23, (R)-5-cyclopropyl-3-(2-(1-(6-(2,2-difluoroethoxy)pyridin-3-yl)ethyl)-1,2,3,4-tetrahydroisoquinoline-7-sulfonamido)-1,2,4-oxadiazol-2-ium 2,2,2-trifluoroacetate]",8.09
7,CCNC(=O)c1noc(NS(=O)(=O)c2ccc3c(c2)CN([C@H](C)c2cc(F)cc(F)c2)CC3)n1 [Example 53],8.15
8,C[C@H](c1ccc(OCC(F)F)nc1)N1CCc2ccc(S(=O)(=O)Nc3cc(C(C)(C)C)on3)cc2C1 [Example 22],8.19
9,"CC(C)(C)c1onc(NS(=O)(=O)c2cnc3c(c2)CN(Cc2cc(F)cc(F)c2)CC3)c1Br [Example 44, N-(4-bromo-5-(tert-butyl)isoxazol-3-yl)-6-(3,5-difluorobenzyl)-5,6,7,8-tetrahydro-1,6-naphthyridine-3-sulfonamide Trifluoroacetate]",6.93
10,"C/C=C/c1c(NS(=O)(=O)c2ccc3c(c2)CN(Cc2cnc(OCC(F)(F)F)s2)CC3)noc1C(C)(C)C [Example 21, (E)-N-(5-(tert-butyl)-4-(prop-1-en-1-yl)isoxazol-3-yl)-2-((2-(2,2,2-trifluoroethoxy)thiazol-5-yl)methyl)-1,2,3,4-tetrahydroisoquinoline-7-sulfonamide]",8.41
11,"Cc1c(NS(=O)(=O)c2ccc3c(c2)CN([C@H](C)c2cnc(OCC(F)(F)F)cn2)CC3)noc1C(C)(C)C [Example 14, (R)—N-(5-(tert-butyl)-4-methylisoxazol-3-yl)-2-(1-(5-(2,2,2-trifluoroethoxy)pyrazin-2-yl)ethyl)-1,2,3,4-tetrahydroisoquinoline-7-sulfonamide]",8.51
12,"CC(C)Nc1cnc(NS(=O)(=O)c2ccc3c(c2)CN([C@H](C)c2ccc(OCC(F)(F)F)nc2)CC3)cn1 [Example 47, 7-(N-(5-(isopropylamino)pyrazin-2-yl)sulfamoyl)-2-((R)-1-(6-(2,2,2-trifluoroethoxy)pyridin-3-yl)ethyl)-1,2,3,4-tetrahydroisoquinolin-2-ium 2,2,2-trifluoroacetate]",7.86
13,C[C@H](c1cc(F)cc(F)c1)N1CCc2ccc(S(=O)(=O)Nc3nc(C(=O)NCC(F)(F)F)no3)cc2C1 [Example 54],7.80
14,"CCc1ccc(CN2CCc3ccc(S(=O)(=O)Nc4noc(C(C)(C)C)c4CC)cc3C2)cn1 [Example 40, N-(5-(tert-butyl)-4-ethylisoxazol-3-yl)-2-((6-ethylpyridin-3-yl)methyl)-1,2,3,4-tetrahydroisoquinoline-7-sulfonamide]",7.82

# Next, values leading:
row,pIC50,SMILES
1,8.46,"CCOc1cnc([C@@H](C)N2CCc3ccc(S(=O)(=O)Nc4noc(C(C)(C)C)c4C)cc3C2)cn1 [Example 36, (R)—N-(5-(tert-butyl)-4-methylisoxazol-3-yl)-2-(1-(5-ethoxypyrazin-2-yl)ethyl)-1,2,3,4-tetrahydroisoquinoline-7-sulfonamide]"
2,8.34,"Cc1c(NS(=O)(=O)c2ccc3c(c2)CN([C@H](C)c2cnc(OCC(F)F)cn2)CC3)noc1C(C)(C)C [Example 25, 7-(N-(5-(tert-butyl)-4-methylisoxazol-3-yl)sulfamoyl)-2-((R)-1-(5-(2,2-difluoroethoxy)pyrazin-2-yl)ethyl)-1,2,3,4-tetrahydroisoquinolin-2-ium 2,2,2-trifluoroacetate]"
3,8.24,"Cc1c(NS(=O)(=O)c2ccc3c(c2)CN(Cc2cnc(SCC(F)(F)F)nc2)CC3)noc1C(C)(C)C [Example 20, N-(5-(tert-butyl)-4-methylisoxazol-3-yl)-2-((2-((2,2,2-trifluoroethyl)thio)pyrimidin-5-yl)methyl)-1,2,3,4-tetrahydroisoquinoline-7-sulfonamide]"
4,7.70,"C[C@H](c1cnc(OCC(F)(F)F)nc1)N1CCc2ccc(S(=O)(=O)Nc3noc(C(C)(C)C)c3-c3cccc(F)c3)cc2C1 [Example 11, (R)—N-(5-(tert-butyl)-4-(3-fluorophenyl)isoxazol-3-yl)-2-(1-(2-(2,2,2-trifluoroethoxy)pyrimidin-5-yl)ethyl)-1,2,3,4-tetrahydroisoquinoline-7-sulfonamide]"
5,8.21,"CNC(=O)c1c(NS(=O)(=O)c2ccc3c(c2)CN([C@H](C)c2cc(F)cc(F)c2)CC3)noc1C(C)(C)C [Example 34, (R)-5-(tert-butyl)-3-(2-(1-(3,5-difluorophenyl)ethyl)-1,2,3,4-tetrahydroisoquinoline-7-sulfonamido)-N-methylisoxazole-4-carboxamide]"
6,7.51,"C[C@H](c1cc(F)cc(F)c1)N1CCc2ccc(S(=O)(=O)Nc3nc(C(N)=O)no3)cc2C1 [Example 52, (R)-5-(2-(1-(3,5-difluorophenyl)ethyl)-1,2,3,4-tetrahydroisoquinoline-7-sulfonamido)-1,2,4-oxadiazole-3-carboxamide]"
7,7.76,"COCCOc1ccc([C@@H](C)N2CCc3ccc(S(=O)(=O)Nc4cc(C(C)(C)C)on4)cc3C2)cn1 [Example 31, 7-(N-(5-(tert-butyl)isoxazol-3-yl)sulfamoyl)-2-((R)-1-(6-(2-methoxyethoxy)pyridin-3-yl)ethyl)-1,2,3,4-tetrahydroisoquinolin-2-ium 2,2,2-trifluoroacetate]"
8,7.94,CCOc1cnc([C@@H](C)N2CCc3ccc(S(=O)(=O)Nc4noc(-c5ccccc5)n4)cc3C2)cn1 [Example 37]
9,7.85,"CCOC(=O)c1noc(NS(=O)(=O)c2ccc3c(c2)CN([C@H](C)c2cc(F)cc(F)c2)CC3)n1 [Example 51, (R)-ethyl 5-(2-(1-(3,5-difluorophenyl)ethyl)-1,2,3,4-tetrahydroisoquinoline-7-sulfonamido)-1,2,4-oxadiazole-3-carboxylate]"
10,8.05,"C[C@H](c1ccccc1)N1CCc2ccc(S(=O)(=O)Nc3cc(C(C)(C)C)on3)cc2C1 [Example 3, (R)—N-(5-(tert-butyl)isoxazol-3-yl)-2-(1-phenylethyl)-1,2,3,4-tetrahydroisoquinoline-7-sulfonamide]"
11,7.51,"COCCOc1ccc(C(=O)N2CCc3ccc(S(=O)(=O)Nc4noc(C(C)(C)C)c4C)cc3C2)cn1 [Example 30, N-(5-(tert-butyl)-4-methylisoxazol-3-yl)-2-(6-(2-methoxyethoxy)nicotinoyl)-1,2,3,4-tetrahydroisoquinoline-7-sulfonamide]"
12,8.06,"COc1ccc(NS(=O)(=O)c2ccc3c(c2)CN([C@H](C)c2ccc(OCC(F)(F)F)nc2)CC3)nn1 [Example 49, (R)—N-(6-methoxypyridazin-3-yl)-2-(1-(6-(2,2,2-trifluoroethoxy)pyridin-3-yl)ethyl)-1,2,3,4-tetrahydroisoquinoline-7-sulfonamide]"
